Experimental data: ChEMBL document CHEMBL1155035, “Cyathuscavins A, B, and C, new free radical scavengers with DNA protection activity from the Basidiomycete Cyathus stercoreus” (Bioorg Med Chem Lett, 2008)
The source made the active and inactive calls. The calls are words filed in the database; no cut-off is given here.

Assays:
[1] = tested on: Radical scavenging activity; assay: Antioxidant activity assessed as DPPH radical scavenging activity after 10 mins; format: functional
[2] = Antioxidant activity assessed as ABTS radical scavenging activity after 12 hrs; format: functional
[3] = Antioxidant activity assessed as superoxide radical anion scavenging activity after 8 mins; format: functional
[4] = Protective effect against Fe2+/H2O2 radical-induced supercoiled DNA breakage at 1 mM

Row | SMILES | EC50 [1] [µM] | EC50 [2] [µM] | Activity [3] | EC50 [3] [µM] | Activity [4] [%]
1 | C/C=C/c1cc(O)cc(=O)o1 | > 100 | > 50 | inactive | – | –
2 | C/C=C/c1cc2c(c(=O)o1)-c1c(O)c(O)c(OC)c(C(=O)O)c1CO2 [CYATHUSCAVIN A] | 19.3 | 14.8 | – | 21.9 | 70
3 | C/C=C/c1cc2c(c(=O)o1)-c1c(O)c(O)c(OC)c(C(=O)O)c1C(OC)O2 (stereo not drawn) [CYATHUSCAVIN B] | 13.9 | 9.84 | – | 25.1 | 90
4 | C/C=C/c1cc2c(c(=O)o1)-c1c(O)c(O)c(OC)c(C(=O)O)c1C(O)O2 (stereo not drawn) [CYATHUSCAVIN C] | 19.6 | 7.08 | inactive | – | 70
5 | Cc1c(C)c2c(c(C)c1O)CCC(C)(C(=O)O)O2 (stereo not drawn) [TROLOX] | 22.1 | 11.8 | inactive | – | –
